Marks after values point to notes of the source that are not given here.
Legend:
[1] = UV-Vis and fluorescence spectroscopy of free dye or probe in buffer or SDS; assay type: physicochemical; conditions: for Φ / ε^SDS: 0.1% SDS in HEPES buffer (pH 7.3); for ε: HEPES buffer (pH 7.3)
Protocol: UV-Vis and Fluorescence Spectroscopy
Spectroscopy was performed using 96-well plate (Thermo Fisher) with optical bottom. All measurements were taken at ambient temperature (25±2° C.). Absorption and fluorescence spectra were recorded on Spark® microplate reader (Tecan). Maximum absorption wavelength (λabs), and maximum emission wavelength (λem) were taken in 10 mM HEPES, pH 7.3 buffer unless otherwise noted; reported values for ε are averages (n=3). Normalized spectra are shown for clarity.
(§1) SDS (10% in 10 mM HEPES) was added with dilution of 100 folds as a control group. Absorbance and fluorescence measurements were performed in 96-well plate (Thermos Fisher) with optical bottom.

SNAP-Halo-tag = assay: Increase in absorbance and fluorescence on binding to SNAP-HaloTag protein in vitro; assay type: biochemical; conditions: for Φ / ε^protein / λabs / λem: binding with SNAP-Halo-tag; for F/F0: ± s.e.m.
Protocol: Measurement of Increase in Absorbance and Fluorescence.
SNAP-HaloTag protein were used as a 85 μM-200 μM solution in 75 mM NaCl, 50 mM TRIS-HCl, pH 7.4 with 50% v/v glycerol (TBS-glycerol). SNAPTag and HaloTag based fluorogenic probes were diluted to 1.0-2.0 μM in 10 mM HEPES, pH 7.3. Then an aliquot of SNAPTag/HaloTag protein (1.5-2.0 equiv) was added and the resulting mixture was incubated until consistent absorbance signal was observed (˜60 min).
as §1

[2] = tested on: U2OS FlpIn Halo-SNAP-NLS expressing cells; assay: No-wash live-cell confocal imaging, nuclear versus cytosol signal; assay type: cell-based; conditions: for signal and background in no-wash live-cell imaging: no washing; for Fnuc./Fcyt.: average ratio between nuclear signal (U2OS FlpIn Halo-SNAP-NLS expressing cells) and cytosol signal (normal U2OS cell), ± s.e.m.; for intracellular kinetics of labeling relative to control probe: nuclear localized SNAP-tag or HaloTag in U2OS cells
From the text: Self-labeling protein tags such as SNAP-tag and HaloTag are an efficient approach to attach synthetic fluorophores to proteins in living cells. The main challenge when using these tags for live-cell imaging is the low cell permeability of most fluorescent probes used for labeling and high background signal resulting from their unspecific binding. SNAP-tag fusion proteins can be specifically labeled with different fluorophores using appropriate O^6-benzlyguanine derivatives. A 6-TAMRA based probe (150) for SNAP-tag has been previously introduced for live-cell imaging, but its low cell-permeability and lack of fluorogenicity requires the use of high concentrations (5 μM) and repeated washing steps to remove excess and non-specifically bound probe. To address these problem, the inventors coupled fluorophores 132-135 to O^6-benzylguanine to obtain probes 152, 154, 156, and 158. […] The inventors then examined the performance of probes 150, 152, 154, 156, and 158 in live-cell imaging, in which U2OS cells stably expressing a nuclear localized SNAP-Halo fusion protein were co-cultured with regular U2OS cells not expressing any protein tags. […] Furthermore, the kinetics of labeling of nuclear localized SNAP-tag with MaP555-SNAP were much faster than those of control […]. The inventors then prepared the corresponding 6-TAMRA-based probes 151, 153, 155, 157, and 159 for HaloTag. As for SNAP-tag, the probe with the largest enhancement in absorbance (16-fold) and fluorescence intensity (35-fold) in in vitro assays was based on the N,N-dimethylsulfamide derivative 159 (abbreviated as MaP555-Halo in the following). […] The excellent performance of MaP555-SNAP and MaP555-Halo in live-cell imaging experiments support the inventors' assumption that establishing a dynamic equilibrium between the fluorescent zwitterion and the more hydrophobic spirolactam enables the generation of highly cell-permeable and fluorogenic probes for live-cell imaging.
Generation of U2OS FlpIn Halo-SNAP-NLS Cell Lines
The Flp-In™ System (ThermoFisher Scientific) was used to generated U2OS FlpIn Halo-SNAP-NLS expressing cells. pcDNA5-FRT-Halo-SNAP-NLS and pOG44 were co-transfected into the host cell line U2OS FLpIn (Malecki et al. Molecular and Cellular Biology 26, 4642 (2006)). Homologous recombination between the FRT sites in pcDNA5-FRT-Halo-SNAP-NLS and on the host cell chromosome, catalysed by the Flp recombinase expressed from pOG44, produced the U2OS FlpIn Halo-SNAP-NLS stably expressing cells.
Live-Cell Confocal Imaging
U2OS FlpIn Halo-SNAP-NLS expressing cells were grown in 96-well plate (Thermos Fisher) with optical bottom at 37° C. in a humidified 5% (vol/vol) CO2 environment. 50-500 nM probes and 2 μM verapamil were added and incubated for 1 h in DMEM media (Evrogen) containing 10% FBS. The cells were directly used to image without washing. Meanwhile, another group was imaged after being washed 2 times for 5 min with 1× phosphate buffered saline (PBS, pH 7.4) and DMEM supplemented with 10% FBS. Imaging was performed using Leica TCS SP8 confocal microscope. TMR- and Rhodamine B—, and Rhodamine 110-based probes were excited at 540 nm and the fluorescence signal was collected from 560-700 nm. Semi-Rhodamine-based probes were excited at 650 nm and the fluorescence signal was […] from 670-760 nm. Images were processed with Fiji (http://fiji.sc/wiki/index.php/Fiji) to obtain MIP (maximum intensity projections)

[3] = ratio of fluorescence intensities at 580 nm in the presence and absence of SNAP-Halo-tag
[4] = upon binding to SNAP-tag, in vitro
[5] = upon binding to HaloTag, in vitro
[6] = ratio of fluorescence intensities at 635 nm in the presence and absence of SNAP-Halo-tag

Φ [1] | ε^SDS [1] | ε [1] | Φ (SNAP-Halo-tag) | ε^protein (SNAP-Halo-tag) | λabs (SNAP-Halo-tag) [nm] | λem (SNAP-Halo-tag) [nm] | F/F0 (SNAP-Halo-tag; [3]) | increase in absorbance at 555 nm (SNAP-Halo-tag; [4]) [fold] | increase in intensity of fluorescence emission at 580 nm (SNAP-Halo-tag; [4]) [fold] | increase in absorbance (SNAP-Halo-tag; [5]) [fold] | increase in fluorescence intensity (SNAP-Halo-tag; [5]) [fold] | F/F0 (SNAP-Halo-tag; [6]) | SMILES | fluorogenicity on binding to tag or target protein (SNAP-Halo-tag; in vitro) | F/F0 (SNAP-Halo-tag; ratio of fluorescence intensities at 720 nm in the presence and absence of SNAP-Halo-tag) | signal and background in no-wash live-cell imaging ([2]; U2OS cells) | Fnuc./Fcyt. [2] | nuclei to cytosol signal ratio (Fnuc/Fcyt) ([2]; no-wash live-cell imaging, U2OS cells, 250 nM for MaP555-SNAP and MaP700-Halo) | intracellular kinetics of labeling relative to control probe [2]
0.61 | 82,000 M^−1cm^−1 | 22,000 M^−1cm^−1 | 0.42 | 66,000 M^−1cm^−1 | 555 | 578 | 7.9 ± 0.2^e | – | – | – | – | – | CN(C)c1ccc2c(-c3cc(C(=O)NCc4ccc(COc5nc(N)nc6[nH]cnc56)cc4)ccc3C(=O)[O-])c3ccc(=[N+](C)C)cc-3oc2c1 [compound 150, reference compound] | – | – | barely detectable signal | 1.8 ± 0.1^f | – | –
0.68 | 87,000 M^−1cm^−1 | 58,000 M^−1cm^−1 | 0.51 | 82,000 M^−1cm^−1 | 555 | 578 | 1.8 ± 0.1^e | – | – | – | – | – | CN(C)c1ccc2c(-c3cc(C(=O)NCCOCCOCCCCCCCl)ccc3C(=O)O)c3ccc(=[N+](C)C)cc-3oc2c1 [compound 151, reference compound] | – | – | – | 9.4 ± 1.7^f | – | –
0.58 | 82,000 M^−1cm^−1 | 18,000 M^−1cm^−1 | 0.33 | 68,000 M^−1cm^−1 | 558 | 580 | 18 ± 2.6^e | – | – | – | – | – | CN(C)c1ccc2c(c1)Oc1cc(N(C)C)ccc1C21c2cc(C(=O)NCc3ccc(COc4nc(N)nc5[nH]cnc45)cc3)ccc2C(=O)N1C#N [compound 152] | – | – | – | 8.1 ± 0.9^f | – | –
0.71 | 79,000 M^−1cm^−1 | 15,000 M^−1cm^−1 | 0.46 | 71,000 M^−1cm^−1 | 557 | 580 | 7.3 ± 0.8^e | – | – | – | – | – | CN(C)c1ccc2c(c1)Oc1cc(N(C)C)ccc1C21c2cc(C(=O)NCCOCCOCCCCCCCl)ccc2C(=O)N1C#N [compound 153] | – | – | – | 10 ± 0.4^f | – | –
0.65 | 86,000 M^−1cm^−1 | 15,000 M^−1cm^−1 | 0.38 | 65,000 M^−1cm^−1 | 558 | 580 | 9.7 ± 0.1^e | – | – | – | – | – | CN(C)c1ccc2c(c1)Oc1cc(N(C)C)ccc1C21c2cc(C(=O)NCc3ccc(COc4nc(N)nc5[nH]cnc45)cc3)ccc2C(=O)N1S(C)(=O)=O [compound 154] | – | – | – | 7.9 ± 0.9^f | – | –
0.66 | 95,000 M^−1cm^−1 | 40,000 M^−1cm^−1 | 0.56 | 85,000 M^−1cm^−1 | 559 | 580 | 3.7 ± 0.4^e | – | – | – | – | – | CN(C)c1ccc2c(c1)Oc1cc(N(C)C)ccc1C21c2cc(C(=O)NCCOCCOCCCCCCCl)ccc2C(=O)N1S(C)(=O)=O [compound 155] | – | – | – | 12 ± 2.6^f | – | –
0.62 | 89,000 M^−1cm^−1 | 9,800 M^−1cm^−1 | 0.46 | 57,000 M^−1cm^−1 | 557 | 578 | 13 ± 2.4^e | – | – | – | – | – | CN(C)c1ccc2c(c1)Oc1cc(N(C)C)ccc1C21c2cc(C(=O)NCc3ccc(COc4nc(N)nc5[nH]cnc45)cc3)ccc2C(=O)N1S(N)(=O)=O [compound 156] | – | – | – | 9.8 ± 0.8^f | – | –
0.65 | 91,000 M^−1cm^−1 | 9,600 M^−1cm^−1 | 0.56 | 87,000 M^−1cm^−1 | 558 | 580 | 19 ± 3.2^e | – | – | – | – | – | CN(C)c1ccc2c(c1)Oc1cc(N(C)C)ccc1C21c2cc(C(=O)NCCOCCOCCCCCCCl)ccc2C(=O)N1S(N)(=O)=O [compound 157] | – | – | – | 14 ± 0.7^f | – | –
0.61 | 88,000 M^−1cm^−1 | 3,500 M^−1cm^−1 | 0.46 | 54,000 M^−1cm^−1 | 556 | 576 | 21 ± 3.2^e | 15 | 21 | – | – | – | CN(C)c1ccc2c(c1)Oc1cc(N(C)C)ccc1C21c2cc(C(=O)NCc3ccc(COc4nc(N)nc5[nH]cnc45)cc3)ccc2C(=O)N1S(=O)(=O)N(C)C [compound 158] | – | – | – | 15 ± 2.9^f | 15 | much faster
0.63 | 92,000 M^−1cm^−1 | 5,200 M^−1cm^−1 | 0.54 | 87,000 M^−1cm^−1 | 558 | 578 | 35 ± 2.3^e | – | – | 16 | 35 | – | CN(C)c1ccc2c(c1)Oc1cc(N(C)C)ccc1C21c2cc(C(=O)NCCOCCOCCCCCCCl)ccc2C(=O)N1S(=O)(=O)N(C)C [compound 159] | – | – | much lower background signal | 18 ± 2.9^f | – | about two-fold faster
0.72 | 70,000^c M^−1cm^−1 | 1,500 M^−1cm^−1 | 0.53 | 144,000 M^−1cm^−1 | 618 | 635 | – | – | – | – | – | 112 ± 3.8^e | CN(C)c1ccc2c(c1)C(C)(C)c1cc(N(C)C)ccc1C21c2cc(C(=O)NCCOCCOCCCCCCCl)ccc2C(=O)N1C#N [compound 161] | – | – | – | 19 ± 1.2^f | – | –
0.76 | 45,000^c M^−1cm^−1 | 1,600 M^−1cm^−1 | 0.50 | 121,000 M^−1cm^−1 | 618 | 635 | – | – | – | – | – | 179 ± 14^e | CN(C)c1ccc2c(c1)C(C)(C)c1cc(N(C)C)ccc1C21c2cc(C(=O)NCCOCCOCCCCCCCl)ccc2C(=O)N1S(C)(=O)=O [compound 163] | – | – | – | 24 ± 1.8^f | – | –

SMILES | Φ [1] | ε^SDS [1] | ε [1] | Φ (SNAP-Halo-tag) | ε^protein (SNAP-Halo-tag) | λabs (SNAP-Halo-tag) [nm] | λem (SNAP-Halo-tag) [nm] | F/F0 (SNAP-Halo-tag; [3]) | increase in absorbance at 555 nm (SNAP-Halo-tag; [4]) [fold] | increase in intensity of fluorescence emission at 580 nm (SNAP-Halo-tag; [4]) [fold] | increase in absorbance (SNAP-Halo-tag; [5]) [fold] | increase in fluorescence intensity (SNAP-Halo-tag; [5]) [fold] | F/F0 (SNAP-Halo-tag; [6]) | fluorogenicity on binding to tag or target protein (SNAP-Halo-tag; in vitro) | F/F0 (SNAP-Halo-tag; ratio of fluorescence intensities at 720 nm in the presence and absence of SNAP-Halo-tag) | signal and background in no-wash live-cell imaging ([2]; U2OS cells) | Fnuc./Fcyt. [2] | nuclei to cytosol signal ratio (Fnuc/Fcyt) ([2]; no-wash live-cell imaging, U2OS cells, 250 nM for MaP555-SNAP and MaP700-Halo) | intracellular kinetics of labeling relative to control probe [2]
CN1CCc2cc3c(cc21)[Si](C)(C)c1cc2c(cc1C31OC(=O)c3ccc(C(=O)NCCOCCOCCCCCCCl)cc31)CCN2C [compound 37, reference compound] | 0.25 | 85,000^c M^−1cm^−1 | 38,000 M^−1cm^−1 | 0.27 | 83,000 M^−1cm^−1 | 695 | 718 | – | – | – | – | – | – | only modest fluorogenicity | 7.5 ± 0.2^e | relatively high background signal | 6.7 ± 1.5^f | – | –

Source: patent US12326385B2, “Cell-permeable fluorogenic fluorophores” (MAX-PLANCK-GESELLSCHAFT ZUR FÖRDERUNG DER WISSENSCHAFTEN E. …, priority 2018, dated 2025)
